Active and inactive are the calls of the source. The calls are words filed in the database; no cut-off is given here.
How the values were obtained:
Albumin = Albumin (Bos taurus, UniProt P02769); assay: Binding affinity to bovine serum albumin by Albumax assay; format: ADME; details: cattle, isolated protein
Cytochrome P450 2B6 = target: T1, Cytochrome P450 2B6 (Homo sapiens, UniProt P20813)
T1 sequence (P20813 whole entry): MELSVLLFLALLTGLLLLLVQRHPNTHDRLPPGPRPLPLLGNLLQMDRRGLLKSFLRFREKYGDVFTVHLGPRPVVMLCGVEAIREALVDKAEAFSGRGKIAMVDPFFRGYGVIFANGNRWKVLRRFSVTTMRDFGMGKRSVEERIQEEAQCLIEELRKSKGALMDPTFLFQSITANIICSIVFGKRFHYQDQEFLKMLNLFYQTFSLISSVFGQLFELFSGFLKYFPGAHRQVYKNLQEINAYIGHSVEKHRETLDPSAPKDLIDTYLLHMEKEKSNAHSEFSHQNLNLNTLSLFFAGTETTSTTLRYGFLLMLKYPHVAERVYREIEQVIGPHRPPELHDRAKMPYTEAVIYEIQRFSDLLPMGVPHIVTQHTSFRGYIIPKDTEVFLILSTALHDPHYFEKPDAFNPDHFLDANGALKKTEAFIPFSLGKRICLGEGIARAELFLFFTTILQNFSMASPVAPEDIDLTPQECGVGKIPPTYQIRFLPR

[1] = target: Dihydroorotate dehydrogenase (quinone), mitochondrial (Mus musculus, UniProt O35435); assay: Inhibition of mouse DHODH up to 100 uM; details: up to 100 µM
Plasmodium falciparum [2] = assay: Antimalarial activity against Plasmodium falciparum 3D70087/N9 infected in orally dosed NOD-SCID IL2Rgamma null mouse assessed as parasitemia level administered days after 3 post infection once daily for 4 days measured on day 7 by flow cytometry; format: functional; details: time 4 day
[3] = Volume of distribution at steady state in Sprague-Dawley rat at […], iv measured up to 24 hrs; format: ADME, organism-based; details: in vivo, dose 1.8 mg/kg, read-out: Vdss
[4] = Oral bioavailability in Sprague-Dawley rat at 17 mg/kg measured up to 24 hrs; format: ADME, organism-based; details: in vivo
L1210 = assay: Cytotoxicity against mouse L1210 cells; format: cell-based
[5] = AUC (0 to infinity) in Swiss mouse at […], po measured up to 24 hrs by LC-MS analysis; format: ADME, organism-based; design: route oral, dose 2.6 mg/kg, time <=24; details: in vivo
[6] = Oral bioavailability in Swiss mouse at 24 mg/kg measured up to 24 hrs by LC-MS analysis; format: ADME, organism-based; details: in vivo
Cytochrome P450 3A4 = Cytochrome P450 3A4 (Homo sapiens, UniProt P08684)
[7] = rat, plasma
[8] = Half life in Swiss mouse at […], po measured up to 24 hrs by LC-MS analysis; format: ADME, organism-based; details: in vivo, dose 2.6 mg/kg
[9] = Unbound AUC in orally dosed NOD-SCID IL2Rgamma null mouse infected with Plasmodium falciparum 3D70087/N9 administered days after 3 post infection once daily for 4 days measured on day 7 by flow cytometry; format: ADME, organism-based; details: in vivo, po, 96 h, time 4 day
[10] = Inhibition of dog DHODH up to 100 uM; design: species or system Canis lupus familiaris; details: up to 100 µM
[11] = rat, in vivo, po, 10 mg/kg, 24 h
[12] = Oral bioavailability in Swiss mouse at […] measured up to 24 hrs by LC-MS analysis; format: ADME, organism-based; details: in vivo, dose 2.6 mg/kg
[13] = human, plasma
[14] = Intrinsic clearance in mouse liver microsomes at 1 uM measured up to 4 hrs by LC-MS analysis; format: ADME, Microsome
[15] = Mutagenicity in Salmonella typhimurium by Ames test; format: toxicity; details: salmonella enterica subsp. enterica serovar typhimurium
[16] = Plasma clearance in Sprague-Dawley rat at […], iv measured up to 24 hrs; format: ADME, organism-based; details: dose 1.8 mg/kg
Plasmodium falciparum [17] = tested on: Plasmodium falciparum
[18] = rat, in vivo, po, 10 mg/kg, 24 h; remark: listed apart in the source
[19] = mouse, plasma
[20] = rat, in vivo, po, 10 mg/kg, 24 h; remark: listed apart in the source
Cytochrome P450 2C8 = target: T2, Cytochrome P450 2C8 (Homo sapiens, UniProt P10632)
T2 sequence (P10632 whole entry): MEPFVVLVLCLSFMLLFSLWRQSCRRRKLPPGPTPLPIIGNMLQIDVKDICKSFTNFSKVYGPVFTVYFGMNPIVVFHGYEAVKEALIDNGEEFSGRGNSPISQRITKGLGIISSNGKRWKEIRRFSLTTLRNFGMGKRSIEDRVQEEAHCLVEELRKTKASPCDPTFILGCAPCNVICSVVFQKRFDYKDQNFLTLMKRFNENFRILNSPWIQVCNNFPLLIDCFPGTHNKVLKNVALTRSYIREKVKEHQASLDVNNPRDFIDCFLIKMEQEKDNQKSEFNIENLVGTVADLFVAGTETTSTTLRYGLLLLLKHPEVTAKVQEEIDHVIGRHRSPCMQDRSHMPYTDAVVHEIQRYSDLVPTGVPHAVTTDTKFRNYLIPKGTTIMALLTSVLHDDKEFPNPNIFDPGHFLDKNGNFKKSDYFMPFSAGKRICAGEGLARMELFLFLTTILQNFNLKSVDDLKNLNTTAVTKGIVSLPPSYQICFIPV

[21] = Cmax in Swiss mouse at 24 mg/kg, po measured up to 24 hrs by LC-MS analysis; format: ADME, organism-based; design: route oral, dose 24 mg/kg, time <=24; details: in vivo
[22] = target: Dihydroorotate dehydrogenase (quinone), mitochondrial (Rattus norvegicus, UniProt Q63707); assay: Inhibition of rat DHODH up to 100 uM; details: up to 100 µM
Plasmodium falciparum [23] = assay: Antiplasmodial activity against Plasmodium falciparum 3D7 Uganda infected in human erythrocytes assessed as parasite killing using albumax media measured after 72 hrs by SYBR Green assay; format: functional, organism-based; details: 3D7, 72 h
Plasmodium falciparum [24] = assay: Antimalarial activity against Plasmodium falciparum 3D70087/N9 infected in orally dosed NOD-SCID IL2Rgamma null mouse assessed as parasitemia level in human red blood cells at 50 mg/kg, po administered days after 1 day post infection twice daily for 6 days measured on day 7 by flow cytometry; format: functional, organism-based; details: time 6.0 day
Plasmodium falciparum [25] = assay: Antiplasmodial activity against asexual blood stage Plasmodium falciparum D10 expressing yeast DHODH infected in human erythrocytes assessed as parasite killing in presence of proguanil; format: functional, organism-based
in vivo = details: Swiss, mouse, po
Plasmodium falciparum [26] = assay: Antimalarial activity against Plasmodium falciparum 3D70087/N9 infected in NOD-SCID IL2Rgamma null mouse assessed as parasitemia level at 50 mg/kg, po administered days after 3 post infection once daily for 4 days measured on day 7 by flow cytometry; format: functional, organism-based; details: time 4.0 day
[27] = AUC (0 to infinity) in Swiss mouse at 24 mg/kg, po measured up to 24 hrs by LC-MS analysis; format: ADME, organism-based; design: route oral, dose 24 mg/kg, time <=24; details: in vivo
Plasmodium falciparum [28] = assay: Antiplasmodial activity against asexual blood stage Plasmodium falciparum D10 expressing yeast DHODH infected in human erythrocytes assessed as parasite killing; format: functional, organism-based

Dihydroorotate dehydrogenase (quinone), mitochondrial (Rattus norvegicus, UniProt Q63707), sequence (Q63707 whole entry): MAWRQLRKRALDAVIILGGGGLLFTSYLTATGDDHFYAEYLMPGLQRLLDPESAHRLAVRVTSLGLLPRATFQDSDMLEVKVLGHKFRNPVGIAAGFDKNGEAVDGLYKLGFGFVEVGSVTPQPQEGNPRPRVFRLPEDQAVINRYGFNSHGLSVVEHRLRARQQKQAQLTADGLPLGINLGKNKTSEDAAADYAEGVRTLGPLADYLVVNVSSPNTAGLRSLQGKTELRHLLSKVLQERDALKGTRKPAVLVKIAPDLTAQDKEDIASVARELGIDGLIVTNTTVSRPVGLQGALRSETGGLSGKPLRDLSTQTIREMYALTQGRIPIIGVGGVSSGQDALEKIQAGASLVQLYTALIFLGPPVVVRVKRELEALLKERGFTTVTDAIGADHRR
Cytochrome P450 3A4, sequence (P08684 whole entry): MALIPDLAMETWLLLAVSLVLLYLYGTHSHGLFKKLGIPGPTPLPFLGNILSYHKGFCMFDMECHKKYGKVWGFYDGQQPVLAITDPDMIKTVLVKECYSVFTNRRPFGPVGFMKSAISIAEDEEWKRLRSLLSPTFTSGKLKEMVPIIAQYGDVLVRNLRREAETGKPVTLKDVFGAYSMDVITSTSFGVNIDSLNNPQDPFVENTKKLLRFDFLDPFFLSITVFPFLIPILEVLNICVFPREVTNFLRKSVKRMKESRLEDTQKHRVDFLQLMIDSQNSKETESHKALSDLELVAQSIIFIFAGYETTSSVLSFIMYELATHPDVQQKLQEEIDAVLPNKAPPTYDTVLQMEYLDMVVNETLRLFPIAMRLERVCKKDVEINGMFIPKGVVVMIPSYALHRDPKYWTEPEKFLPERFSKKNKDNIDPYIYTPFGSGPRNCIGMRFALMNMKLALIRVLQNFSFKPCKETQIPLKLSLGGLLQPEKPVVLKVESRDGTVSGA
Albumin, sequence (P02769 whole entry): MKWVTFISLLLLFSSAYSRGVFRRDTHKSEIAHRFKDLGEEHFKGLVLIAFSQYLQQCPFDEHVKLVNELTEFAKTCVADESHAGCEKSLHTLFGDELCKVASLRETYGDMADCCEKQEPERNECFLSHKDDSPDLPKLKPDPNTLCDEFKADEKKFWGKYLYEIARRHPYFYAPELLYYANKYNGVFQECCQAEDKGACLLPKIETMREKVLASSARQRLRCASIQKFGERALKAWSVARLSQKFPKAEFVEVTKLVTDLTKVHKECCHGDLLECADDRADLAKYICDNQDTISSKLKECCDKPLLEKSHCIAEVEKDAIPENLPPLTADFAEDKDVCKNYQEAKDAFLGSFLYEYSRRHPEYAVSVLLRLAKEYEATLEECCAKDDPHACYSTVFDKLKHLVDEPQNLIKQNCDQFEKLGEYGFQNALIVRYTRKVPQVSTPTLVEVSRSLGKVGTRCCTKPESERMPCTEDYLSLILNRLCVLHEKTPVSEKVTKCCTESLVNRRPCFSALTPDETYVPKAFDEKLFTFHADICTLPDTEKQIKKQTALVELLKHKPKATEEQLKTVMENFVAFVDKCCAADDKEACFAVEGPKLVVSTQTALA
Dihydroorotate dehydrogenase (quinone), mitochondrial (Mus musculus, UniProt O35435), sequence (O35435 whole entry): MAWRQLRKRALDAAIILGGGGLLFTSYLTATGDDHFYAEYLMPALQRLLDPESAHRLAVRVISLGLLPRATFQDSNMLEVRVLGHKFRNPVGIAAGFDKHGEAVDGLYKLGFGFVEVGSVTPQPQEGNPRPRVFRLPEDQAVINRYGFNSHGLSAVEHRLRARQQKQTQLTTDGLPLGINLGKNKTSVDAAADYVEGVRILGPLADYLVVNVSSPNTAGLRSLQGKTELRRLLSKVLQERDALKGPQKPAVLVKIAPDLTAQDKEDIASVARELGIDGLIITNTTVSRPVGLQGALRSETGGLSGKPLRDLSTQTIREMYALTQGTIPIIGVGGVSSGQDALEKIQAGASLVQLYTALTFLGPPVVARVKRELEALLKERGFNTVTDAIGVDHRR

Compound: Cc1c(C2(c3ccc(C(F)(F)F)nc3)CC2)c[nH]c1C(=O)NC(C)c1nc[nH]n1 (stereo in doubt; form 1)
- Activity (Albumin): 71.9%
- IC50 (Cytochrome P450 2B6): > 20 µM
- inhibition (INH) [1]: Not Active
- ED50 (Plasmodium falciparum [2]): 26 mg/kg
- Vd at 24 h [3]: 2.1 L/kg
- bioavailability [4]: 110%
- Activity (L1210): Non-Toxic
- AUC(0-inf) at 24 h [5]: 29 µM·h
- F [6]: 70%
- TDI (Cytochrome P450 3A4): Not Active
- PPB [7]: 94.3%
- half-life at 24 h [8]: 3.4 h
- fAUC [9]: 4.1 µM·h
- inhibition (INH) [10]: Not Active
- t1/2(app) [11]: 5.9 h
- bioavailability at 24 h [12]: 74%
- PPB [13]: 92.8%
- Intrinsic clearance [14]: 11 µL/min/mg
- Activity [15]: Non-Toxic
- clearance at 24 h [16]: 6.8 mL/min/kg
- EC50 (Plasmodium falciparum [17]): 0.17 µM
- F [18]: 77%
- PPB [19]: 92.1%
- Cmax [20]: 6 µM
- IC50 (Cytochrome P450 2C8): > 20 µM
- Cmax [21]: 20 µM
- inhibition (INH) [22]: Not Active
- EC50 (Plasmodium falciparum [23]): 0.0075 µM
- Activity (Plasmodium falciparum [24]): Active
- EC50 (Plasmodium falciparum [25]): > 10 µM
- Tmax at 24 h (in vivo): 4 h
- Activity (Plasmodium falciparum [26]): Active
- AUC [27]: 250 µM·h
- EC50 (Plasmodium falciparum [28]): > 10 µM

— ChEMBL document CHEMBL4811258, “Potent Antimalarials with Development Potential Identified by Structure-Guided Computational Optimization of a Pyrrole-Based Dihydroorotate Dehydrogenase Inhibitor Series” (J Med Chem, 2021)
